This is an account of results in patent US6506799B1, “Methods of treating cardiovascular diseases, dyslipidemia, dyslipoproteinemia, and hypertension with ether compounds” (Esperion Therapeutics, Inc., priority 1999, dated 2003).

Data set [1] deals with chow fed obese female Zucker rats. Put plainly: Experiments B, C, D, E: serum lipids, glucose, insulin, body and liver weight in obese female Zucker rats, 14 days. To be noted: for Body Weight Gain (% of Pretreatment) / HDL-Cholesterol (% of Pretreatment) / Non HDL-Cholesterol (% of Pretreatment) / Triglycerides (% of Pretreatment): 14 days. In kind it is in vivo, rat. The protocol:
In a number of different experiments, illustrative compounds of the invention and troglitazone were administered daily at various doses to 10-week old chow fed obese female Zucker rats for 14 days in the morning by oral gavage in 1.5% carboxymethylcellulose/0.2% Tween-20 (dosing vehicle). Animals were weighed daily. Animals were allowed free access to rodent chow and water throughout the study. Blood glucose was determined after a 6-hour fast in the afternoon without anesthesia from a tail vein. Serum was also prepared from a blood sample subsequently obtained from the orbital venous plexus (with O2/CO2 anesthesia) prior to and after one week treatment and used lipid and insulin determinations. At two weeks, blood glucose was again determined after a 6-hour fast without anesthesia from a tail vein. Soon thereafter, animals were sacrificed by CO2 inhalation in the evening and cardiac blood serum was collected and assessed for various lipids and insulin. Body weight was determined daily prior to dosing and at the time of euthanasia.

The test system of data set [2] is chow fed male Sprague-Dawley rats. Put plainly: Serum lipids, apolipoproteins and weight gain in chow fed male Sprague-Dawley rats after seven days of treatment. The following applies: 100 mg/kg/day oral gavage, 7 days; normalized against vehicle control. Type of data set: in vivo, rat. The procedure: Illustrative compounds of the invention were administered daily at a dose of 100 mg/kg to chow fed male Sprague-Dawley rats for seven days in the morning by oral gavage in 1.5% carboxymethylcellulose/0.2% Tween-20 (dosing vehicle). Animals were weighed daily. Animals were allowed free access to rodent chow and water throughout the study. After the seventh dose, animals were sacrificed in the evening and blood serum was assayed for lipoprotein cholesterol profiles, serum triglycerides, total cholesterol VLDL, LDL, and HDL cholesterol, and the ratio of HDL cholesterol to that of VLDL plus LDL cholesterol, apolipoproteins A-I, C-II, C-III, and E by immunoelectrophoresis, and percent weight gain.
The five compounds were tested in two separate experiments. In each experiment, the experimental data were normalized against a control group of rats which received the dosing vehicle alone.

In another data set the test system is female obese Zucker rats. Put plainly: Experiment A: serum lipids, glucose, non-esterified fatty acids and weight gain in obese female Zucker rats after seven days. Type of data set: in vivo, rat. The following applies: 120 mg/kg. The protocol: Dosing vehicle, Compound A (86 mg/kg of body weight) or troglitazone (120 mg/kg of body weight) was administered to eight week old female obese Zucker rats daily for seven days in the morning by oral gavage in 1.5% carboxymethylcellulose/0.2% Tween-20. Troglitazone was obtained commercially. Finely crushed tablets were suspended in vehicle for dosing. Orbital blood samples were obtained following a six-hour fast prior to the initial dose and also following the seventh dose.
Blood serum was assayed for total cholesterol and triglycerides (FIG. 5), lipoprotein cholesterol profiles (FIG. 6), VLDL plus LDL cholesterol combined (also referred to as apo B containing lipoprotein cholesterol or non-HDL cholesterol), HDL cholesterol, and the ratio of HDL cholesterol to that of VLDL plus LDL cholesterol (FIG. 7), serum glucose, and non-esterified fatty acids (FIG. 8), and percent weight gain (FIG. 9). […] In particular, Compound A caused a marked elevation in HDL cholesterol after one week of treatment. Using the serum total cholesterol values (FIG. 5A) and the lipoprotein cholesterol distribution (FIG. 6), the amount of cholesterol associated with non-HDL (i.e., VLDL plus LDL) and HDL were determined (FIG. 7). […] In contrast, troglitazone reduced non-HDL and HDL cholesterol by 67% and 4%, respectively.

In another data set the test system is primary rat hepatocytes. Put plainly: Synthesis of non-saponified and saponified lipids (14C-acetate incorporation) in hepatocytes. To be noted: 100 μM; 14C-acetate 2 hr; vs no compound control. In kind it is cell-based. The procedure: A male Sprague-Dawley rat was anesthetized by administration of sodium pentobarbitol by intraparitoneal injection at 50 mg/kg. In situ perfusion of the liver was performed as follows. […] To digest the liver, DSC solution (6.7 mM KCl, 143 mM NaCl, 9.2 mM Na HEPES, 5 mM CaCl2-2H2O, 1.7 mM Fructose, 0.029 mM Phenol red, 0.2% BSA, 100 U/ml collagenase Type I, 93 U/ml Hyaluronidase, 160 BAEE/ml trypsin inhibitor, pH 7.5) was perfused through the liver at a flow rate of 30 ml/min for 6 minutes at a temperature of 37° C. After digestion, cells were dispersed in a solution of DMEM-(DMEM containing 2 mM GlutMax-1, 0.2% BSA, 5% FBS, 12 nM insulin, 1.2 μM hydrocortisone) to stop the digestion process. The crude cell suspension was filtered through three layers of stainless steel mesh with pore sizes of 250, 106, and 75 μm respectively. Filtered cells were centrifuged at 50×g for two minutes and the supernatant discarded. The resulting cell pellet was resuspended in DMEM and centrifuged again. This final cell pellet was resuspended in DMEM+HS solution (DMEM containing 2 mM GlutMax-1, 20 nM delta-aminolevulinic acid, 17.4 mM MEM non-essential amino acids, 20% FBS, 12 nM insulin, 1.2 µM hydrocortisone) and plated to form monolayer cultures at a density of 100×10^3 cells/cm^2 on collagen coated culture dishes. Four hours after initial plating, media was changed to DMEM+(DMEM containing 2 mM GlutMax-1, 20 nM delta-aminolevulinic acid, 17.4 mM MEM non-essential amino acids, 10% FBS, 12 nM insulin, 1.2 μM hydrocortisone) and remained on cells overnight.
To test the effect of illustrative compounds of the invention on synthesis rates of non-saponified and saponified lipids, the monolayer cultures were exposed to 1 μM of lovastatin or 100 μM Compound A, B, D, E or F in DMEM+ containing 1 μCi/ml ^14C-acetate. Control cells were exposed to the same media lacking lovastatin or the test compounds. All cells were exposed to 0.1% DMSO. Metabolic labeling with ^14C-acetate continued for 2 hr at 37° C. After labeling, cells were washed twice with 1 ml of PBS followed by lysing in 1 ml of deionized water. Cells were scraped from the dishes, transferred to glass tubes and sonicated. 2.5 ml of 2:1 chloroform/methanol mixture was added followed by 1.5 ml of Phosphate Buffered Saline (PBS). To correct for extraction efficiency in the upcoming extractions, 3000 dpm of ^3H-cholesterol was added to each tube. Tubes were shaken for 30 min. to extract lipids into the organic phase followed by centrifugation for 10 minutes at 1000×g to separate the organic and aqueous phases. The lower organic phase containing total lipids was removed and placed in a new tube. The organic solution was evaporated under N2. […]

Each structure is given as a SMILES string.

On to `CC(C)(CCCCOCCCCC(C)(C)OP(=O)(O)O)OP(=O)([O-])[O-].[Na+].[Na+]` [Compound B, phosphoric acid mono-(1,1-dimethyl-5-(5-methyl-5-phosphonooxy-hexyloxy)-pentyl)ester sodium salt], for which, in data set [1] (Experiment B, 100 mg/kg/day), the “Body Weight Gain (% of Pretreatment)” value is given as “+12.0 % of Pretreatment”, the “HDL-Cholesterol (% of Pretreatment)” value was −23.3 % of Pretreatment, the “Non HDL-Cholesterol (% of Pretreatment)” value was “+257.1 % of Pretreatment” and the “Triglycerides (% of Pretreatment)” value was “+24.6 % of Pretreatment”. In addition, in data set [2], the “HDL-Cholesterol (% change)” value is listed as “+40.7 % change”, the “LDL-Cholesterol (% change)” value is “+23.2 % change” and the “Triglyceride (% change)” value is on record as −31.1 % change.
Regarding `CC(C)(CCCOCCCC(C)(C)OP(=O)(O)O)OP(=O)([O-])[O-].[Na+].[Na+]` [Compound D, phosphoric acid mono-(1,1-dimethyl-4-(4-methyl-4-phosphonooxy-pentyloxy)-butyl)ester sodium salt], in data set [2], the “HDL-Cholesterol (% change)” value was “+13.3 % change”, the “LDL-Cholesterol (% change)” value is listed as −17.0 % change and the “Triglyceride (% change)” value was “+28.0 % change”.
As for `Cc1c(C)c2c(c(C)c1O)CCC(C)(COc1ccc(CC3SC(=O)NC3=O)cc1)O2` (stereo not drawn) [troglitazone, reference compound], the “Body Weight Gain (% of Pretreatment)” value in data set [1] (Experiment B, 120 mg/kg/day) is “+21.7 % of Pretreatment”; in data set [1] (Experiment C, 12 mg/kg/day), “+20.2 % of Pretreatment”; in data set [1] (Experiment C, 40 mg/kg/day), “+21.2 % of Pretreatment”; in data set [1] (Experiment C, 120 mg/kg/day) it was “+25.5 % of Pretreatment”; in data set [1] (Experiment D, 120 mg/kg/day), “+13.8 % of Pretreatment”; in data set [1] (Experiment E, 120 mg/kg/day), “+14.4 % of Pretreatment”. In addition, the “HDL-Cholesterol (% of Pretreatment)” value in data set [1] (Experiment B, 120 mg/kg/day) is listed as “+44.2 % of Pretreatment”; in data set [1] (Experiment C, 12 mg/kg/day), “+1.9 % of Pretreatment”; in data set [1] (Experiment C, 40 mg/kg/day) it was “+36.1 % of Pretreatment”; in data set [1] (Experiment C, 120 mg/kg/day), “+122.4 % of Pretreatment”; in data set [1] (Experiment D, 120 mg/kg/day), “+41.3 % of Pretreatment”; in data set [1] (Experiment E, 120 mg/kg/day), “+47.9 % of Pretreatment”. Moreover, the “Non HDL-Cholesterol (% of Pretreatment)” value is −44.0 % of Pretreatment in data set [1] (Experiment B, 120 mg/kg/day); −10.6 % of Pretreatment in data set [1] (Experiment C, 12 mg/kg/day); −50.5 % of Pretreatment in data set [1] (Experiment C, 40 mg/kg/day); −67.5 % of Pretreatment in data set [1] (Experiment C, 120 mg/kg/day); −51.0 % of Pretreatment in data set [1] (Experiment D, 120 mg/kg/day); −67.4 % of Pretreatment in data set [1] (Experiment E, 120 mg/kg/day). Moreover, the “Triglycerides (% of Pretreatment)” value in data set [1] (Experiment B, 120 mg/kg/day) is on record as −76.6 % of Pretreatment; in data set [1] (Experiment C, 12 mg/kg/day), “+10.7 % of Pretreatment”; in data set [1] (Experiment C, 40 mg/kg/day), −59.6 % of Pretreatment; in data set [1] (Experiment C, 120 mg/kg/day), −79.2 % of Pretreatment; in data set [1] (Experiment D, 120 mg/kg/day), −65.9 % of Pretreatment; in data set [1] (Experiment E, 120 mg/kg/day), −69.4 % of Pretreatment. In data set [1] (Experiment C, 120 mg/kg dose), this molecule came in with an HDL increase of 122%. Moreover, in data set [1] (Experiment C, all doses, after two weeks, FIG. 16), the “percent liver to body weight” value is “reduced at all doses”. The “reduction of HDL cholesterol” value with female obese Zucker rats (one week) turned out to be 4%. For the same molecule, in the data set on female obese Zucker rats (one week), the “reduction of non-HDL cholesterol” value is 67%. For the same molecule, the “reduction of non-esterified fatty acids” value in the data set with female obese Zucker rats (one week) is given as 65%. Besides, the “increase in weight gain” value in the data set on female obese Zucker rats (seven days, vehicle 6.6%) is on record as “+11.6%”.
Take `CC(C)(CCCCOCCCCC(C)(C)OP(=O)(OCc1ccccc1)OCc1ccccc1)OP(=O)(OCc1ccccc1)OCc1ccccc1` [Compound C, phosphoric acid dibenzyl ester 5-(5-(bis-benzyloxy-phosphoryloxy)-5-methyl-hexyloxy)-1,1-dimethyl-pentyl ester]: in data set [2], the “HDL-Cholesterol (% change)” value is listed as “+11.6 % change”, the “LDL-Cholesterol (% change)” value is on record as −4.0 % change and the “Triglyceride (% change)” value is recorded as “+32.6 % change”.
With `CC(C)(O)CCCCOCCCCC(C)(C)O` [Compound F, 6-(5-hydroxy-5-methyl-hexyloxy)-2-methyl-hexan-2-ol], the “rates of saponified fatty acid synthesis” value with primary rat hepatocytes is on record as “reduced the rates of saponified fatty acid synthesis”.
For `CC(C)(CCCOCCCC(C)(C)OP(=O)(OCc1ccccc1)OCc1ccccc1)OP(=O)(OCc1ccccc1)OCc1ccccc1` [Compound E, phosphoric acid dibenzyl ester 4-(4-(bis-benzyloxy-phosphoryloxy)-4-methyl-pentyloxy)-1,1-dimethyl-butyl ester], the “rates of saponified fatty acid synthesis” value in the data set with primary rat hepatocytes was “reduced the rates of saponified fatty acid synthesis”. Further, in data set [2], the “HDL-Cholesterol (% change)” value is “+49.1 % change”, the “LDL-Cholesterol (% change)” value is listed as −41.0 % change and the “Triglyceride (% change)” value is −30.5 % change.
